# Assay results published in BindingDB's records for doi:10.1021/jm00053a012 (Washington University, 1993).
# Target: calcium-independent phospholipase A2 (Canis familiaris)
# Assay: Compounds were evaluated for the inhibitory activity against canine myocardial cytosolic calcium-independent phospholipase A2.
row,IC50,Structure (SMILES)
1,30 nM,O=C1O/C(=C/I)CCC1c1cccc2ccccc12 (configuration not stated) [(E)-6-Iodomethylene-3-naphthalen-1-yl-tetrahydro-pyran-2-one]
2,190 nM,O=C1O/C(=C\I)CCC1c1cccc2ccccc12 (configuration not stated) [(Z)-6-(iodomethylene)-3-(naphthalen-1-yl)tetrahydro-2H-pyran-2-one]
